In patent publication US7342133B2, “Substituted amino compounds as 5-HT/NA uptake inhibitors” (Gruenenthal GmbH, priority 2004, dated 2008):

Experiments:
[1] = system: phenylquinone-induced writhing reactions; assay: Analgesic activity in the writhing test in the mouse; type: in vivo
Procedure: c) Studies of Analgesic Activity in the Writhing Test in the Mouse
The writhing test in the mouse is a modification of the method according to Hendershot L C, Forsaith, J, J Pharmacol Exp Ther 125: 237-240 (1959).
0.3 ml/animal of a 0.02% aqueous phenylquinone solution, with the addition of 5% ethanol, is administered intraperitoneally to the animals as pain stimulus. This solution is administered 30 minutes (test substance p.o.) or 10 minutes (test substance i.v.) after administration of the test substance. The pain-induced stretching movements (so-called writhing reactions=straightening of the body with extension of the rear extremities) are recorded 5 to 20 minutes after the administration of phenylquinone. The animals treated with the test substance are compared with a control group that received physiological saline. Size of the group n=10.

[2] = system: duration of the phase of immobility; assay: Antidepressant activity in the forced swimming test (Porsolt test) in the mouse; type: in vivo; details: for Relative duration of the phase of immobility versus control: i.p.
Procedure: d) Study of Antidepressant Activity in the Forced Swimming Test (Porsolt Test) in the Mouse The studies to determine the antidepressant activity of the compounds of formula I according to the invention were carried out in the forced swimming test (Porsolt test) in the mouse (Porsolt, R. et al., Arch. Int. Pharmacodyn. Vol. 229, p. 327-336 (1977)). Male mice (20-25 g body weight) were placed individually for a period of 6 minutes into a flat water tank from which they were unable to escape and accordingly were forced to swim. After some time, the animals gave up their attempts to swim and entered a phase of immobility. In the interval of from 2 to 6 minutes after introduction of the animal, the duration of the phase of immobility was determined. Test substance and vehicle groups each comprise 10 animals. Changes in the duration of the phase of immobility are stated relative to the vehicle control. Antidepressants induce a shortening of the phase of immobility.

[3] = system: formalin-induced nociceptive behaviour (chronic pain component); assay: Analgesic activity in the formalin test in the mouse; type: in vivo
Procedure: b) Studies of Analgesic Activity in the Formalin Test in the Mouse The formalin test (Dubuisson, D. and Dennis, S. G., 1977, Pain, 4, 161-174) represents a model for acute and chronic pain. In the studies presented here, the chronic pain component was evaluated. By means of a single formalin injection into the dorsal side of a rear paw, a biphase nociceptive reaction is induced in freely mobile test animals; the reaction is assessed by observing three markedly different behaviour patterns. Formalin is injected subcutaneously in a volume of 20 μl and a concentration of 1% into the dorsal side of the right rear paw of each animal. The specific behavioural changes differing from normal behaviour (score 0), such as lifting (score 1) and shaking of the paw (score 2), as well as biting and licking reactions (score 3), are observed and recorded continuously at 3-minute intervals for 60 minutes after the formalin injection. […] The size of the group was 10 animals (n=10). On the basis of the PR calculations, the activity of the substance was determined in percent as the change relative to a control. The ED50 was determined by means of regression analysis.

NA reuptake = assay: Inhibition of NA reuptake in rat brain synaptosomes (P2 fraction, hypothalamus); type: biochemical; details: for Ki: hypothalamus, Ki from IC50 by Cheng-Prusoff
Procedure: (§1) a) Studies of the inhibition of 5-HT and NA reuptake
(§2) In order to be able to carry out these in vitro studies, synaptosomes are freshly isolated from areas of rat brain. A so-called “P2” fraction is used in each case, which is prepared exactly according to the procedure of Gray, E. G. and Whittaker, V. P. (J. Anat. 76, 79-88, 1962). For NA reuptake, these vesicular particles are isolated from the hypothalamus of male rat brains, and for 5-HT reuptake, they are isolated from the medulla +pons region.
(§3) The following characteristic data were determined for the NA and 5-HT reuptake: • NA uptake: Km=0.32±0.11 μM • 5-HT uptake: Km=0.084±0.011 μM (in each case N=4, i.e. mean values ± SEM from 4 independent test series which were carried out in triplicate parallel tests).
(§4) A detailed description of the method can be found in the publication of Frink, M., Hennies, H. H., Englberger, W. et al. (Arzneim.-Forsch./Drug Res. 46 (III), 11, 1029-1036, 1996) (the batch can also be carried out on microtitre plates (250 μl/well) at room temperature).
(§5) In addition to % inhibitions at fixed concentrations of test substance (e.g. 1×10^−6 M or 1×10^−5 M in the batch), dose dependencies were also checked. IC50 values were obtained thereby which can be converted into inhibitor constants (Ki) according to the “Cheng-Prusoff equation” (Cheng, Y. C. and Prusoff, W. H., Biochem. Pharmacol. 22, 3099-3108, 1973). The IC50 values were obtained with the aid of the “Figure P” computer program (Version 6.0, Biosoft, Cambridge, England). Km values were calculated according to Lineweaver, H. and Burk, D. (J. Am. Chem. Soc. 56, 658-666, 1934). The “Ligand” computer program (Version 4, Biosoft, England) was used to show KD values.

5-HT reuptake = assay: Inhibition of 5-HT reuptake in rat brain synaptosomes (P2 fraction, medulla + pons region); type: biochemical; details: for Ki: medulla + pons, Ki from IC50 by Cheng-Prusoff
Procedure: as §1, §2, §3, §4, §5

SMILES	melting point [°C]	Inhibition of the nociceptive behaviour, writhing test (in words) [1]	ED50 ([1]; i.v., phenylquinone i.p.) [mg/kg]	Shortening of the phase of immobility, forced swimming test (in words) [2]	Relative duration of the phase of immobility versus control ([2]; 10 mg/kg)	Relative duration of the phase of immobility versus control ([2]; 21.5 mg/kg) [%]	Relative duration of the phase of immobility versus control ([2]; 31.6 mg/kg, ***p < 0.001) [%***]	Relative duration of the phase of immobility versus control ([2]; 46.4 mg/kg, ***p < 0.001) [%***]	Inhibition of the nociceptive behaviour, formalin test (in words) [3]	ED50 ([3]; iv, chronic pain component) [mg/kg]	Inhibition of NA reuptake (in words) (NA reuptake)	Ki (NA reuptake) [nM]	Inhibition of 5-HT reuptake (in words) (5-HT reuptake)	Ki (5-HT reuptake) [nM]
CN(C)CC1=C(Cc2ccc(Cl)cc2)CCC1.Cl	191	–	–	–	–	–	–	–	–	–	–	–	–	–
CN(C)CC1=C(Cc2ccc(Cl)cc2)CCCCC1.Cl [Example 1, [2-(4-Chlorobenzyl)-cyclohept-1-enylmethyl]-dimethylamine; hydrochloride]	–	dose-dependent inhibition	3.04	significant shortening of the phase of immobility	+9%	−34	−67	−76	dose-dependent inhibition	4.71	dose-dependent inhibition	30	dose-dependent inhibition	3
CN(C)CC1=C(Cc2ccc(Cl)cc2)CCCCCC1.Cl [Example 2b, [2-(4-chlorobenzyl)-cyclooct-1enylmethyl]-dimethylamine; hydrochloride]	234 to 237	–	–	–	–	–	–	–	–	–	dose-dependent inhibition	340	dose-dependent inhibition	30
